Assays:
Assay type in all cases: in vivo
[1] = tested on: foxtail, giant (giant foxtail, Setaria faberi); assay: Test C preemergence, giant foxtail; details: 0 is no effect, 100 is complete control
Outline: (§1)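 Plants grown in a sand and loam soil blend received the formulated test chemicals either as a preemergence soil-directed spray or postemergence at 2 to 10 cm height. After 10 or 12 greenhouse days, injury was assessed visually, with 100 meaning complete control.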

kochia (Bassia scoparia) = assay: Test C preemergence, kochia; details: 0 is no effect, 100 is complete control
Outline: as §1

[2] = tested on: oat, wild (wild oat, Avena fatua); assay: Test C postemergence, wild oat; details: for Oat, Wild plant response rating: 31 g ai/ha Postemergence, visual injury, 0 to 100 scale (0 no effect, 100 complete control); for Plant response rating (0 to 100 scale), Oat, Wild: 125 g ai/ha Postemergence, 0 is no effect, 100 is complete control
[3] = tested on: pigweed, palmer (palmer amaranth, Amaranthus palmeri); assay: Test C postemergence, palmer amaranth; details: for Pigweed, Palmer plant response rating: visual injury, 0 to 100 scale (0 no effect, 100 complete control); for Plant response rating (0 to 100 scale), Pigweed, Palmer: 0 is no effect, 100 is complete control
Outline: as §1

[4] = tested on: ragweed (common ragweed, Ambrosia artemisiifolia); assay: Test C postemergence, ragweed; details: for Ragweed plant response rating: visual injury, 0 to 100 scale (0 no effect, 100 complete control); for Plant response rating (0 to 100 scale), Ragweed: 0 is no effect, 100 is complete control
Outline: as §1

soybean (Glycine max) = assay: Test C postemergence, soybean; details: for Soybean plant response rating: visual injury, 0 to 100 scale (0 no effect, 100 complete control); for Plant response rating (0 to 100 scale), Soybean: 0 is no effect, 100 is complete control
[5] = tested on: barnyardgrass (Echinochloa crusgalli); assay: Test D flooded paddy test, barnyardgrass; design: key: 0 = no effect, 100 = complete control; details: 250 g ai/ha, Flood; applied to paddy water at 2-leaf stage; visual rating after 13 days; scale 0 (no effect) to 100 (complete control)
Outline: (§2)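 2-leaf plants; flood 3 cm over soil; cpd into paddy water; depth maintained; greenhouse 13 d; visual rating vs controls, 0 = no effect, 100 = complete control; dash = no result.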

rice (Oryza sativa) = assay: Test D flooded paddy test, rice; design: key: 0 = no effect, 100 = complete control; details: 250 g ai/ha, Flood; applied to paddy water at 2-leaf stage; visual rating after 13 days; scale 0 (no effect) to 100 (complete control)
Outline: as §2

[6] = tested on: sedge, umbrella (small-flower umbrella sedge, Cyperus difformis); assay: Test D flooded paddy test, umbrella sedge; design: key: 0 = no effect, 100 = complete control; details: 250 g ai/ha, Flood; applied to paddy water at 2-leaf stage; visual rating after 13 days; scale 0 (no effect) to 100 (complete control)
Outline: as §2

Row | SMILES | Plant response rating (0 to 100 scale), Foxtail, Giant ([1]; 31 g ai/ha Preemergence) | Plant response rating (0 to 100 scale), Foxtail, Giant ([1]; 125 g ai/ha Preemergence) | Plant response rating (0 to 100 scale), Kochia (kochia (Bassia scoparia); 31 g ai/ha Preemergence) | Plant response rating (0 to 100 scale), Kochia (kochia (Bassia scoparia); 125 g ai/ha Preemergence) | Oat, Wild plant response rating [2] | Plant response rating (0 to 100 scale), Oat, Wild [2] | Pigweed, Palmer plant response rating ([3]; 31 g ai/ha Postemergence) | Plant response rating (0 to 100 scale), Pigweed, Palmer ([3]; 125 g ai/ha Postemergence) | Ragweed plant response rating ([4]; 31 g ai/ha Postemergence) | Plant response rating (0 to 100 scale), Ragweed ([4]; 125 g ai/ha Postemergence) | Soybean plant response rating (soybean (Glycine max); 31 g ai/ha Postemergence) | Plant response rating (0 to 100 scale), Soybean (soybean (Glycine max); 125 g ai/ha Postemergence) | Plant response rating, Barnyardgrass [5] | Plant response rating, Rice (rice (Oryza sativa)) | Plant response rating, Sedge, Umbrella [6] | Pigweed, Palmer plant response rating ([3]; 125 g ai/ha Postemergence) | Ragweed plant response rating ([4]; 125 g ai/ha Postemergence) | Soybean plant response rating (soybean (Glycine max); 125 g ai/ha Postemergence)
1 | Cc1cc(C)c(N2CCC(O)C2=O)cc1NS(=O)(=O)C(F)(F)F (stereo not drawn) [Compound 14] | 80 | 100 | 50 | 100 | 30 | 60 | 40 | 90 | 60 | 80 | 80 | 80 | 0 | 25 | 35 |  |  | 
2 | CC(=O)N(c1cc(N2CCC(OC3CC3)C2=O)c(C)cc1C)S(=O)(=O)C(F)(F)F (stereo not drawn) [Compound 17] | 90 | 100 | 80 | 100 | 30 | 70 | 40 | 90 | 70 | 90 | 60 | 80 | 85 | 15 | 95 |  |  | 
3 | CCCC(=O)OCN(c1cc(N2CCC(OC3CC3)C2=O)c(C)cc1C)S(=O)(=O)C(F)(F)F (stereo not drawn) [Compound 20] | 90 | 100 | 80 | 100 | 30 | 80 | 50 | 80 | 80 | 90 | 60 | 70 | 90 | 15 | 98 |  |  | 
4 | Cc1cc(C)c(N2CCC(OCC3CC3)C2=O)cc1NS(=O)(=O)C(F)(F)F (stereo not drawn) [Compound 22] | 100 | 100 | 90 | 100 | 20 | 40 | 50 | 80 | 60 | 80 | 60 | 70 | 90 | 55 | 95 |  |  | 
5 | Cc1c(N2CCC(OC3CC3)C2=O)cc(N(COC(=O)C(C)(C)C)S(=O)(=O)C(F)(F)F)c(C)c1F (stereo not drawn) [Compound 23] | 20 | 90 | 20 | 90 | 20 | 50 | 50 | 70 | 90 | 90 | 60 | 60 | 95 | 40 | 95 |  |  | 
6 | Cc1c(NS(=O)(=O)C(F)(F)F)cc(N2CCC(OC3CCC3)C2=O)c(C)c1F (stereo not drawn) [Compound 25] | 100 | 100 | 70 | 100 | 0 | 20 | 70 |  | 60 |  | 100 |  | 0 | 15 | 90 | 90 | 80 | 100
7 | Cc1c(N2CCC(OC3CCC3)C2=O)cc(N(COC(=O)C(C)(C)C)S(=O)(=O)C(F)(F)F)c(C)c1F (stereo not drawn) [Compound 28] | 70 | 100 | 20 | 90 | 20 | 30 | 50 |  | 80 |  | 50 |  | 60 | 30 | 95 | 90 | 80 | 60

From patent US20240158348A1, “HERBICIDAL CYCLIC AMIDES N-SUBSTITUTED WITH A HALOALKYLSULFONYLANILIDE GROUP” (FMC Corporation, priority 2021, published 2024)
